Reference: PMC6017357, “In Vitro Inhibitory Effects of Synthetic Cannabinoid EAM-2201 on Cytochrome P450 and UDP-Glucuronosyltransferase Enzyme Activities in Human Liver Microsomes” (Molecules : A Journal of Synthetic Chemistry and Natural …, 2018)

Assays:
UGT1A3 = target: T1, UGT1A3 (Homo sapiens, UniProt P35503); experiment: UGT1A3-catalyzed chenodeoxycholic acid 24-acyl-glucuronidation in human liver microsomes; type: in vitro ADME; parameters: from tissue; host or cells: ultrapooled human liver microsomes
T1 sequence (P35503 29-534): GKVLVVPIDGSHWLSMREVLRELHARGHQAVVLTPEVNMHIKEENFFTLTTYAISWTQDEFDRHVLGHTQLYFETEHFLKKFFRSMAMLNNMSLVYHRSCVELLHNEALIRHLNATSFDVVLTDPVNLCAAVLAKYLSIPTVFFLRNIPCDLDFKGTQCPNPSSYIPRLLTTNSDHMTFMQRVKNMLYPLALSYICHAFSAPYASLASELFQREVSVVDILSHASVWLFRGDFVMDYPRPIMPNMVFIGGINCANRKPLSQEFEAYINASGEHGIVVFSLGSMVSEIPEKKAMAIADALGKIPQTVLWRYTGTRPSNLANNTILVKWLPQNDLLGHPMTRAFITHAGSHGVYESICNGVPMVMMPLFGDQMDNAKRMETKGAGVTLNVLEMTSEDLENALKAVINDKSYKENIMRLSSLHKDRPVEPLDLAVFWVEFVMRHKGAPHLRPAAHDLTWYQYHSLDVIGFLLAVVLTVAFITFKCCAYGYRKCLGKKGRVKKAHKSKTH
Description: The inhibitory effects of EAM-2201 on UGT1A1, UGT1A3, UGT1A4, UGT1A6, UGT1A9 and UGT2B7 were evaluated using LC-MS/MS and the cocktail of UGT substrates as previously described. […] Supernatant from sets A and B (50 µL of each) was mixed and aliquots (5 µL) were analyzed by LC-MS/MS. […]
Reactions were initiated by adding UDPGA at 37 °C and stopped after 60 min by adding 100 µL ice-cold methanol containing propofol glucuronide (internal standard). […] Aliquots (5 µL) of the diluted supernatants were analyzed using LC-MS/MS.
(§1) The metabolites formed from the six UGT cocktail substrates were simultaneously measured using LC-MS/MS [41]. […] Each metabolite was quantified via SRM in the negative ion mode: chenodeoxycholic acid 24-acyl-β-glucuronide, 567.2 > 391.0; mycophenolic acid glucuronide, 495.2 > 318.9; and propofol glucuronide (IS), 353.3 > 177.1; and in the positive ion mode: SN-38 glucuronide, 569.0 > 393.0; trifluoperazine glucuronide, 584.2 > 408.1; N-acetylserotonin-β-D-glucuronide, 395.2 > 219.0; naloxone 3-β-D-glucuronide, 504.0 > 310.0; and meloxicam (IS), 352.0 > 115.1. […]

UGT1A4 = target: T2, UGT1A4 (Homo sapiens, UniProt P22310); experiment: UGT1A4-catalyzed trifluoperazine N-glucuronidation in human liver microsomes; type: in vitro ADME; details: at 50 µM
T2 construct: ultrapooled human liver microsomes (0.2 mg/mL), 5 mM UDPGA; from tissue; host or cells: ultrapooled human liver microsomes
T2 sequence (P22310 29-534): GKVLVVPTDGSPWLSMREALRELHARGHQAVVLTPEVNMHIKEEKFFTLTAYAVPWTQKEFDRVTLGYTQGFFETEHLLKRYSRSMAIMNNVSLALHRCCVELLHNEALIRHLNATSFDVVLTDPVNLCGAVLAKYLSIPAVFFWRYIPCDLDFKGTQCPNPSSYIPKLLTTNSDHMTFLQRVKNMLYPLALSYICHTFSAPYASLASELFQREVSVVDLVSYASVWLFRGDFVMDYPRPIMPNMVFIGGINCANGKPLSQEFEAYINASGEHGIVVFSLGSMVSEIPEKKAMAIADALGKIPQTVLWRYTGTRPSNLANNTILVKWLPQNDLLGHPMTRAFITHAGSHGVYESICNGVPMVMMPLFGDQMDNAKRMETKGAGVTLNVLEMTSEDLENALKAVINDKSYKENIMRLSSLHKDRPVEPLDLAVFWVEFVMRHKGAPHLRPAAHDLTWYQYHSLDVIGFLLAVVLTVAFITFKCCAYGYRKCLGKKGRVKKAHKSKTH
Description: The inhibitory effects of EAM-2201 on UGT1A1, UGT1A3, UGT1A4, UGT1A6, UGT1A9 and UGT2B7 were evaluated using LC-MS/MS and the cocktail of UGT substrates as previously described. Each incubation mixture was prepared in a final volume of 100 µL as follows: ultrapooled human liver microsomes (0.2 mg/mL), 5 mM UDPGA, 10 mM magnesium chloride, alamethicin (25 µg/mL), 50 mM Tris buffer (pH 7.4), various concentrations of EAM-2201 in DMSO (final concentrations of 1–50 µM, 0.5% DMSO) and the UGT enzyme-specific substrates of two cocktail sets (set A: 0.5 µM SN-38, 2 µM chenodeoxycholic acid and 0.5 µM trifluoperazine; set B: 1 µM N-acetylserotonin, 0.2 µM mycophenolic acid and 1 µM naloxone, acetonitrile content, 0.5%). […] Supernatant from sets A and B (50 µL of each) was mixed and aliquots (5 µL) were analyzed by LC-MS/MS. […]
as §1

CCc1ccc(C(=O)c2cn(CCCCCF)c3ccccc23)c2ccccc12 [EAM-2201, (4-ethyl-1-naphthalenyl)[1-(5-fluoropentyl)-1H-indol-3-yl]-methanone]
IC50 (UGT1A3): 11.7 µM | Ki (UGT1A3): 2400 nM | inhibition of UGT1A4-catalyzed trifluoperazine N-glucuronidation (UGT1A4): negligibly inhibited
